Measurements published in US12527774B2, “Estrogen-related receptor alpha modulators” (LEAD PHARMA HOLDING B.V., priority 2019, dated 2026).

The compounds below were run against ERRα ligand binding domain (ERRα-LBD) (Homo sapiens (Human), UniProt P11474) (assay: ERRα AlphaScreen Assay). Settings: disruption of binding of ERRα-LBD protein to biotin-PGC1α-3 co-activator peptide.
Format: biochemical
Text: This assay was based on the knowledge that nuclear receptors interact with cofactors in a ligand dependent matter. The sites of interaction have been mapped to LXXLL motifs that are present in the co-activator sequences. Short peptide sequences that contain the LXXLL motif mimic the behavior of full length co-activators.
The ERRα AlphaScreen Assay described here relies on the interaction of the co-activator peptide with purified bacterial-expressed ERRα ligand binding domain (ERRα-LBD); upon ligand binding the ERRα protein can undergo a conformational change resulting in a loss of co-activator binding.
Compounds of the present invention were tested for their ability to disrupt binding of ERRα-LBD protein to co-activator peptide using AlphaScreen® Technology (Perkin Elmer). ERRα-LBD protein was expressed in E. coli as a 6×His Small Ubiquitin-like Modifier (SUMO) fusion. Bacterial expressed 6His-SUMO-ERRα-LBD protein was purified using affinity chromatography. All experiments were performed at room temperature in 384-well white non-binding plates (Greiner) using 50 mM Tris-HCl pH 7.5, 100 mM NaCl, 0,1% Pluronic F-127, 0.05% BSA and 5 mM TCEP as the buffer. Final DMSO concentration was 1% in the assay. Compounds were assayed in triplicate and: incubated with 0.81 nM ERRα-LBD protein and 10 μg/mL streptavidin donor beads and 10 μg/mL Ni-chelate acceptor beads for 1 hour at room temperature; followed by a 2-hour incubation with 15 nM biotin-PGC1α-3 peptide (QRRPCSELLKYLTTNDDPP) corresponding to amino acids 202 to 220.
The AlphaScreen signal was measured using an Envision Xcite plate reader (Perkin Elmer). Data was normalized, and curve fitting analysis was performed in GraphPad Prism 7 using a four-parameter dose-response fit.
As multiple IC50 values were annotated for the same compound-protein pair, a mean pIC50 for each compound was determined.

Sequence of ERRα ligand binding domain (ERRα-LBD) (P11474 193-421): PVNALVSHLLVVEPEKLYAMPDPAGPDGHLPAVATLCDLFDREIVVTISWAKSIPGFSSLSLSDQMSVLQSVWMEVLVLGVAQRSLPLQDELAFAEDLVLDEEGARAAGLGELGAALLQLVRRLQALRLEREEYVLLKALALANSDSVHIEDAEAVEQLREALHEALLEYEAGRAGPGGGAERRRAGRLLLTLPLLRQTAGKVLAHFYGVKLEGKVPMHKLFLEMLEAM

mean pIC50 | SMILES
≥ 8 | COc1cc(C2CC(=O)Nc3n[nH]cc32)ccc1COc1ccc(C(F)F)cc1C(F)F (single isomer, unassigned; (-)) [Example 218, (−)-4-(4-{[2,4-bis(difluoromethyl)phenoxy]methyl}-3-methoxyphenyl)-2H,4H,5H,6H,7H-pyrazolo[3,4-b]pyridin-6-one]
≥ 8 | COc1cc(C2CC(=O)Nc3n[nH]cc32)ccc1COc1ccc(C)cc1C (single isomer, unassigned; (-)) [Example 220, (−)-4-{4-[(2,4-dimethylphenoxy)methyl]-3-methoxyphenyl}-2H,4H,5H,6H,7H-pyrazolo[3,4-b]pyridin-6-one]
≥ 8 | COc1cc(C2CC(=O)Nc3n[nH]cc32)ccc1OCc1ccccc1I (stereo not shown) [Example 23, 4-{4-[(2-iodophenyl)methoxy]-3-methoxyphenyl}-2H,4H,5H,6H, 7H-pyrazolo[3,4-b]pyridin-6-one]

Same assay, conditions: disruption of binding of ERRα-LBD protein to biotin-PGC1α-3 co-activator peptide; read-out: mean pIC50 (converted)

IC50 | SMILES
0.01 to 0.1 µM | COc1cc(C2CC(=O)Nc3n[nH]cc32)ccc1COc1ccc(Cl)cc1C(F)(F)F (single isomer, unassigned; (+)) [Example 193, (+)-4-(4-{[4-chloro-2-(trifluoromethyl)phenoxy]methyl}-3-methoxyphenyl)-2H,4H,5H,6H,7H-pyrazolo[3,4-b]pyridin-6-one]
0.01 to 0.1 µM | COc1cc(C2CC(=O)Nc3n[nH]cc32)ccc1COc1ccc(C(F)F)cc1C(F)(F)F (single isomer, unassigned; (+)) [Example 195, (+)-4-(4-{[4-(difluoromethyl)-2-(trifluoromethyl)phenoxy]methyl}-3-methoxyphenyl)-2H,4H,5H,6H,7H-pyrazolo[3,4-b]pyridin-6-one]
0.1 to 1 µM | COc1cc(C2CC(=O)Nc3n[nH]cc32)ccc1OCc1ccc(C(C)=O)cc1C(F)(F)F (single isomer, unassigned; (+)) [Example 199, (+)-4-(4-{[4-acetyl-2-(trifluoromethyl)phenyl]methoxy}-3-methoxyphenyl)-2H,4H,5H,6H,7H-pyrazolo[3,4-b]pyridin-6-one]
0.01 to 0.1 µM | COc1ccc(COc2ccc(C3CC(=O)Nc4[nH]nnc43)cc2OC)c(C(F)(F)F)c1 (single isomer, unassigned; (+)) [Example 201, (+)-7-(3-methoxy-4-{[4-methoxy-2-(trifluoromethyl)phenyl]methoxy}phenyl)-3H,4H,5H,6H,7H-[1,2,3]triazolo[4,5-b]pyridin-5-one]
0.01 to 0.1 µM | COc1cc(C2CC(=O)Nc3n[nH]cc32)ccc1OCc1ccc(N)cc1C(F)(F)F (single isomer, unassigned; (+)) [Example 203, (+)-4-(4-{[4-amino-2-(trifluoromethyl)phenyl]methoxy}-3-methoxyphenyl)-2H,4H,5H,6H,7H-pyrazolo[3,4-b]pyridin-6-one]
0.01 to 0.1 µM | COc1cc(C2CC(=O)Nc3n[nH]cc32)ccc1OCc1ccc(O)cc1C(F)(F)F (single isomer, unassigned; (+)) [Example 209, (+)-4-(4-{[4-hydroxy-2-(trifluoromethyl)phenyl]methoxy}-3-methoxyphenyl)-2H,4H,5H,6H,7H-pyrazolo[3,4-b]pyridin-6-one]
0.01 to 0.1 µM | COc1cc(C2CC(=O)Nc3n[nH]cc32)ccc1COc1ccc(C)cc1C(F)(F)F (single isomer, unassigned; (+)) [Example 213, (+)-4-(3-methoxy-4-{[4-methyl-2-(trifluoromethyl)phenoxy]methyl}phenyl)-2H,4H,5H,6H,7H-pyrazolo[3,4-b]pyridin-6-one]
0.1 to 1 µM | COc1cc(C2CC(=O)Nc3n[nH]cc32)ccc1COc1ccc(C(F)(F)F)cc1C(F)F (single isomer, unassigned; (+)) [Example 215, (+)-4-(4-{[2-(difluoromethyl)-4-(trifluoromethyl)phenoxy]methyl}-3-methoxyphenyl)-2H,4H,5H,6H,7H-pyrazolo[3,4-b]pyridin-6-one]
0.1 to 1 µM | COc1cc(C2CC(=O)Nc3n[nH]cc32)ccc1COc1ccc(C(F)F)cc1C(F)F (single isomer, unassigned; (+)) [Example 217, (+)-4-(4-{[2,4-bis(difluoromethyl)phenoxy]methyl}-3-methoxyphenyl)-2H,4H,5H,6H,7H-pyrazolo[3,4-b]pyridin-6-one]
0.1 to 1 µM | COc1cc(C2CC(=O)Nc3n[nH]cc32)ccc1COc1ccc(C)cc1C (single isomer, unassigned; (+)) [Example 219, (+)-4-{4-[(2,4-dimethylphenoxy)methyl]-3-methoxyphenyl}-2H,4H,5H,6H,7H-pyrazolo[3,4-b]pyridin-6-one]
0.01 to 0.1 µM | COc1cc(C2CC(=O)Nc3n[nH]nc32)ccc1OCc1ccc(N)cc1C(F)(F)F (single isomer, unassigned; (-)) [Example 206, (−)-7-(4-{[4-amino-2-(trifluoromethyl)phenyl]methoxy}-3-methoxyphenyl)-2H,4H,5H,6H,7H-[1,2,3]triazolo[4,5-b]pyridin-5-one]
0.01 to 0.1 µM | COc1cc(C2CC(=O)Nc3n[nH]cc32)ccc1COc1ccc(C(F)(F)F)cc1C(F)F (single isomer, unassigned; (-)) [Example 216, (−)-4-(4-{[2-(difluoromethyl)-4-(trifluoromethyl)phenoxy]methyl}-3-methoxyphenyl)-2H,4H,5H,6H,7H-pyrazolo[3,4-b]pyridin-6-one]
0.01 to 0.1 µM | COc1cc(C2CC(=O)Nc3n[nH]cc32)ccc1OCc1ccccc1Cl (stereo not shown) [Example 2, 4-{4-[(2-chlorophenyl)methoxy]-3-methoxyphenyl}-2H,4H,5H,6H,7H-pyrazolo[3,4-b]pyridin-6-one]
0.01 to 0.1 µM | COc1cc(C2CC(=O)Nc3n[nH]cc32)ccc1OCc1ccccc1Br (stereo not shown) [Example 4, 4-{4-[(2-bromophenyl)methoxy]-3-methoxyphenyl}-2H,4H,5H,6H, 7H-pyrazolo[3,4-b]pyridin-6-one]
0.1 to 1 µM | COc1cc(C2CC(=O)Nc3n[nH]cc32)ccc1OCc1cccc(Br)c1 (stereo not shown) [Example 11, 4-{4-[(3-bromophenyl)methoxy]-3-methoxyphenyl}-2H,4H,5H,6H, 7H-pyrazolo[3,4-b]pyridin-6-one]
0.01 to 0.1 µM | COc1cc(C2CC(=O)Nc3n[nH]cc32)ccc1OCc1cc(C(F)(F)F)ccc1C(F)(F)F (stereo not shown) [Example 14, 4-(4-{[2,5-bis(trifluoromethyl)phenyl]methoxy}-3-methoxyphenyl)-2H,4H,5H,6H, 7H-pyrazolo[3,4-b]pyridin-6-one]
0.01 to 0.1 µM | COc1cc(C2CC(=O)Nc3n[nH]cc32)ccc1OCc1ccccc1OC(F)F (stereo not shown) [Example 17, 4-(4-{[2-(difluoromethoxy)phenyl]methoxy}-3-methoxyphenyl)-2H,4H,5H,6H,7H-pyrazolo[3,4-b]pyridin-6-one]
0.1 to 1 µM | COc1cc(C2CC(=O)Nc3n[nH]cc32)ccc1OCc1ccccc1[N+](=O)[O-] (stereo not shown) [Example 18, 4-{3-methoxy-4-[(2-nitrophenyl)methoxy]phenyl}-2H,4H,5H,6H, 7H-pyrazolo[3,4-b]pyridin-6-one]
0.1 to 1 µM | COc1cc(C2CC(=O)Nc3n[nH]cc32)ccc1OCc1c(F)cccc1C(F)(F)F (stereo not shown) [Example 21, 4-(4-{[2-fluoro-6-(trifluoromethyl)phenyl]methoxy}-3-methoxyphenyl)-2H,4H,5H,6H,7H-pyrazolo[3,4-b]pyridin-6-one]
0.1 to 1 µM | COc1cc(C2CC(=O)Nc3n[nH]cc32)ccc1OCc1cccc(Cl)c1Cl (stereo not shown) [Example 22, 4-{4-[(2,3-dichlorophenyl)methoxy]-3-methoxyphenyl}-2H,4H,5H,6H,7H-pyrazolo[3,4-b]pyridin-6-one]
0.1 to 1 µM | COc1ccc([N+](=O)[O-])cc1COc1ccc(C2CC(=O)Nc3n[nH]cc32)cc1OC (stereo not shown) [Example 25, 4-{3-methoxy-4-[(2-methoxy-5-nitrophenyl)methoxy]phenyl}-2H,4H,5H,6H,7H-pyrazolo[3,4-b]pyridin-6-one]
0.01 to 0.1 µM | COC(=O)c1ccccc1COc1ccc(C2CC(=O)Nc3n[nH]cc32)cc1OC (stereo not shown) [Example 26, methyl 2-(2-methoxy-4-{6-oxo-2H,4H,5H,6H,7H-pyrazolo[3,4-b]pyridin-4-yl}phenoxymethyl)benzoate]
0.1 to 1 µM | COc1cc(C2CC(=O)Nc3n[nH]cc32)ccc1OCc1cccc(C(F)(F)F)c1F (stereo not shown) [Example 28, 4-(4-{[2-fluoro-3-(trifluoromethyl)phenyl]methoxy}-3-methoxyphenyl)-2H,4H,5H,6H,7H-pyrazolo[3,4-b]pyridin-6-one]
0.1 to 1 µM | COc1cc(C2CC(=O)Nc3n[nH]cc32)ccc1OCc1cc(Cl)ccc1Cl (stereo not shown) [Example 29, 4-{4-[(2,5-dichlorophenyl)methoxy]-3-methoxyphenyl}-2H,4H,5H,6H, 7H-pyrazolo[3,4-b]pyridin-6-one]
0.1 to 1 µM | COc1ccccc1COc1ccc(C2CC(=O)Nc3n[nH]cc32)cc1OC (stereo not shown) [Example 30, 4-{3-methoxy-4-[(2-methoxyphenyl)methoxy]phenyl}-2H,4H,5H,6H,7H-pyrazolo[3,4-b]pyridin-6-one]
